In EP0427518B1, “NMDA-Blocking compounds, pharmaceutical compositions, their preparation and use” (priority 1989, dated 1991):

Experiments:
[1] = cited from earlier work
C-57 Black mice = test: Inhibition of tremorogenic, convulsive and lethal effects of NMDA in C-57 Black mice; format: in vivo; conditions: for blockade of NMDA-induced tremor, seizure and lethality: at about 2.5 mg/kg body weight, summary statement, mouse strain not given; for mice in which the tremorogenic, convulsive and lethal effects were prevented: dose 5 mk/kg, NMDA 100 mg/kg
Method: (§1) Sabra mice (an Israeli heterogenous strain) were pretreated with either vehicle alone (control) or HU-211 (1.25 or 2.50 mg/kg; s.c.), followed by NMDA (200 mg/kg; s.c.). […] Similar experiments were performed using C-57 Black mice, in which the dose of NMDA was decreased (100 mg/kg; s.c.). Counteraction by HU-211 of the NMDA-induced effects was more pronounced in the latter strain (which is more sensitive than Sabra mice to the effects of NMDA). In the control series of both strains, which received NMDA without HU-211, all animals died in less than 10 min. following seizure onset.
The experiments described in Table 2 were repeated with C-57 Black mice, HU-211 replaced by the compound of formula (II) (compound Vb, U.S. Patent No. 4,179,517) and the compound of formula (IIa)(compound XIb, ibid.). NMDA (100 mg/kg) was administered to the mice.
In addition, the experiments were repeated with the novel compound HU-247.

NMDA receptor [2] = test: Equilibrium binding of [³H]TCP to well-washed rat brain cortical membranes
BALB/C mice [3] = test: Protection against NMDA toxicity; format: in vivo; conditions: for % alive / No.alive total / Onset time of clinical signs: NMDA 125 mg/kg s.c., 120 min post HU-211
Method: (§2) BALB/C mice (20 g) were subcutaneously injected with picrotoxin, strychnine and NMDA in doses of about LD₉₀ and subsequent clinical observations for the occurrence of convulsions and death were carried out within 20 min. The number of mice used and the mortality were assessed at the highest doses administered.

Sabra mice [4] = test: Locomotor activity (body displacement over 7-cm squares); format: in vivo; conditions: HU-211 2.5 mg/kg s.c., mean ±SEM
Excerpt: (§3) As will be shown hereafter, the pharmacological profile of HU-211, and other compounds constituting the active ingredients of the present compositions, includes the induction of stereotypy, locomotor hyper-activity and tachycardia in mice (Table 1). […] This possibility was explored by examining the activity of the compounds in protecting against the tremorogenic, convulsive and lethal effects of NMDA and NMDA agonists in mice. Such effects are counteracted by virtually all NMDA antagonists.

Sabra mice [5] = test: Induction of stereotypy (stereotypy gradient of Feigenbaum et al.); format: in vivo; conditions: for Stereotypy Gradient: HU-211 2.5 mg/kg s.c., mean ±SEM; for induction of stereotypy, locomotor hyperactivity and tachycardia: at about 25 mg/kg body weight, summary statement covering stereotypy, locomotor and heart rate tests, mice
Excerpt: as §3

BALB/C mice [6] = test: Protection against picrotoxin toxicity; format: in vivo; conditions: Picrotoxin 4 mg/kg s.c.; vehicle Emulsion; HU-211 10 mg/kg; 120 min post HU-211
Method: as §2

Sabra mice [7] = test: Induction of tachycardia (heart rate); format: in vivo; conditions: HU-211 2.5 mg/kg s.c., mean ±SEM
Excerpt: as §3

Sabra mice [8] = test: Inhibition of tremorogenic, convulsive and lethal effects of NMDA in Sabra mice; format: in vivo
Method: as §1

NMDA receptor [9] = test: Kinetics of basal and glutamate/glycine-induced [³H]TCP binding to rat brain cortical membranes
Method: Kinetic experiments were then performed in order to determine whether HU-211 exerts its behavioral effects by acting directly at the glutamate- or the glycine-binding sites of the NMDA receptor.
Like the competitive NMDA antagonist aminophosphovalerate (AP-5), HU-211 reduces the glutamate/glycine potentiation of [³H]TCP binding.
HU-211 reduces the rate of binding of [³H]TCP to the NMDA-receptor channel and the rate of dissociation of [³H]TCP-receptor complexes. • A) Time course of basal (without added agonist) and induced with 1 »M L-glutamate and 1 »M glycine) [³H]TCP binding to the NMDA receptor of rat brain cortical membranes. Data represent the basal binding determined in the absence (●) and in the presence (▲) of 10 »M HU-211, and the induced binding determined in the absence (o) and in the presence (△) of 10 »M HU-211. Binding of [³H]TCP to well-washed control membranes was determined under the following conditions: membranes (80 »g protein) were incubated at 25°C in 200 »l HEPES buffer, pH 7.4, containing 5 nM [³H]TCP (total binding) or 5 nM [³H]TCP and 100 »M PCP (phencyclidine) (nonspecific binding), and the reactions were terminated at the indicated times by rapid filtration over polyethyleneimine-treated GF/C filters. The filters were counted in scintillation liquid (Hydroluma, Lumac Inc., Netherlands). HU-211 was prepared as described elsewhere [Mechoulam, R., et al., Tetrahedron:Asymmetry, 1:315-319 (1990)]. Means values (triplicates) of the specific binding of [³H]TCP (total minus non-specific binding) are plotted as a function of the incubation time. The data shown are from one of three experiments that gave similar results. • (B-C) First-order plots of the basal (B) and the induced (C) dissociation of [³H]TCP-receptor complexes. Data represent the basal (without added agonist) dissociation rates determined in the absence (●) and in the presence (▲) of 10 »M HU-211; the induced (with 1 »M L-glutamate and 1 »M glycine) dissociation rates were determined in the absence (o) and in the presence (△) of 10 »M HU-211. Samples were preincubated as described for Figure 2A, at 25°C with 18 nM [³H]TCP for 2 h. Basal dissociation reactions were initiated by the addition of 100 »M unlabeled PCP with or without 10 »M HU-211. For the induced dissociation reactions 1 »M glutamate and 1 »M glycine were also added. Reactions were terminated either immediately (zero time) or at the indicated times. Beq, amount of [³H]TCP bound at zero time. Bt, amount of [³H]TCP boud at time t. […]
Data represent the concentration-dependent decrease of [³H]TCP binding by HU-211 (o) and by its isomer HU-210 (△). Binding of [³H]TCP (5 nM) was determined as described for Figure 2A, either in the absence (basal) or in the presence (induced) of 1 »M glutamate (A) or of 1 »M glycine (B).
Reactions were terminated after 10 min. Data are expressed as induced over basal binding as a function of isomer concentrations. […]
Non-competitive inhibition of glutamate- or glycine-induced [³H]TCP binding by HU-211. Induced [³H]TCP binding, corresponding to the ratio of binding in the presence of glutamate or glycine to binding in their absence, was determined with 5 nM [³H]TCP at 25°C for 10 min. Binding of (³H)TCP to well-washed rat cortical membranes was determined in triplicate, as described previously [Kloog, Y., et al., Biochemistry, 27: 843-848 (1988)], in the absence (basal) and presence of various concentrations of L-glutamate (a) or glycine (b) with and without HU-211, as indicated. […]

BALB/C mice [10] = test: Protection against strychnine toxicity; format: in vivo; conditions: Strychnine 1 mg/kg s.c.; vehicle Emulphor; HU-211 10 mg/kg; 75 min post HU-211
Method: as §2

[11] = C-57 Black mice, HU-211 1.25 mg/kg s.c. 75 min prior to NMDA 100 mg/kg s.c.
[12] = C-57 Black mice, HU-211 2.50 mg/kg s.c. 75 min prior to NMDA 100 mg/kg s.c.
[13] = vehicle Emulphor, HU-211 5 mg/kg
[14] = vehicle Emulsion, HU-211 5 mg/kg
[15] = vehicle Emulsion, HU-211 10 mg/kg
[16] = Sabra mice, HU-211 2.5 mg/kg s.c. 75 min prior to NMDA 200 mg/kg s.c.

With `CCCCCCC(C)(C)c1cc(O)c2c(c1)OC(C)(C)[C@@H]1CC=C(CO)C[C@@H]21` [HU-210, 7-hydroxy-Δ⁶-tetrahydrocannabionol 1,1-dimethylheptyl homolog, reference compound] as the molecule, how does the “cannabimimetic activity relative to Δ-1-tetrahydrocannabionol” value ([1]; more active than Δ-1-tetrahydrocannabionol) read?
Its value is about 100 times.

Which results are given for `CCCCCCC(C)(C)c1cc(O)c2c(c1)OC(C)(C)[C@H]1CC=C(CO)C[C@H]21` [HU-211, (+)-(3S,4S)-1,1-dimethylheptyl homolog of 7-hydroxy-Δ⁶-tetrahydrocannabinol]?
mice that exhibited no tremors or seizures and stayed alive for more than four days following NMDA administration (C-57 Black mice; C-57 Black mice pretreated with HU-211 (2.50 mg/kg s.c.), NMDA 100 mg/kg s.c.): six of the seven; Time until death (C-57 Black mice; [11]): 18.6 ± 4.2 min; Time until first seizure (C-57 Black mice; [11]): 13.2 ± 2.6 min; Time until first tremor (C-57 Black mice; [11]): 12.0 ± 2.6 min; Time until death (C-57 Black mice; [12]): >5800 min; Time until first seizure (C-57 Black mice; [12]): 5800 min; Time until first tremor (C-57 Black mice; [12]): >5800 min; persistence of the anti-NMDA effects (C-57 Black mice; C-57 Black mice, repeated NMDA 100 mg/kg one day later in the six surviving mice, preliminary results): more than 24 h; blockade of NMDA-induced tremor, seizure and lethality (C-57 Black mice): potent blockers; cannabimimetic activity ([1]; even at doses several thousand times higher than ED₅₀ of HU-210): inactive; equilibrium binding of 5 nM [³H]TCP (NMDA receptor [2]; 100 »M HU-211): not inhibited; maximum binding capacity of [3H]TCP (NMDA receptor [2]; in the presence of HU-211 10 »M, 2-100 nM [³H]TCP, 1 »M glutamate and 1 »M glycine (control 3.4)): 3.5 pmol/mg protein; protection against NMDA toxicity, Emulsion compared with Emulphor preparation (BALB/C mice [3]; HU-211 carried in the Emulsion versus the Emulphor preparation): better protection; % alive (BALB/C mice [3]; [13]): 20%; No.alive total (BALB/C mice [3]; [13]): 2/10; Onset time of clinical signs (BALB/C mice [3]; [13]): 19 min; % alive (BALB/C mice [3]; [14]): 60%; No.alive total (BALB/C mice [3]; [14]): 4/7; Onset time of clinical signs (BALB/C mice [3]; [14]): 7 min; % alive (BALB/C mice [3]; [15]): 80%; No.alive total (BALB/C mice [3]; [15]): 8/10; Onset time of clinical signs (BALB/C mice [3]; [15]): 10 min; Locomotor Activity (Sabra mice [4]; time 0 min, score = squares crossed): 32.0±6.0; Locomotor Activity (Sabra mice [4]; time 15 min): 45.0±2.0; Locomotor Activity (Sabra mice [4]; time 30 min): 37.0±4.04; Locomotor Activity (Sabra mice [4]; time 45 min): 28.0±13.0; Locomotor Activity (Sabra mice [4]; time 60 min): 17.0±7; Stereotypy Gradient (Sabra mice [5]; time 0 min): 0.4±0.1; Stereotypy Gradient (Sabra mice [5]; time 15 min): 1.3±0.2; Stereotypy Gradient (Sabra mice [5]; time 30 min): 2.2±0.1; Stereotypy Gradient (Sabra mice [5]; time 45 min): 0.7±0.2; Stereotypy Gradient (Sabra mice [5]; time 60 min): 0.6±0.3; induction of stereotypy, locomotor hyperactivity and tachycardia (Sabra mice [5]): induce stereotypy, locomotor hyperactivity and tachycardia; % alive (BALB/C mice [6]): 50%; No.alive total (BALB/C mice [6]): 4/8; Onset time of clinical signs (BALB/C mice [6]): 54 min; Heart Rate (Sabra mice [7]; time 0 min): 169.2±2.5 per min; Heart Rate (Sabra mice [7]; time 75 min): 186.8±2.5 per min; mice that exhibited no tremors or seizures and stayed alive for more than four days following NMDA administration (Sabra mice [8]; Sabra mice pretreated with HU-211 (2.5 mg/kg s.c.), NMDA 200 mg/kg s.c.): two of the five; Time until death (Sabra mice [8]; [16]): 20.2 ± 7.0 min; Time until first seizure (Sabra mice [8]; [16]): 18.0 ± 7.0 min; Time until first tremor (Sabra mice [8]; [16]): 8.2 ± 1.3 min; dissociation rate of [³H]TCP from the NMDA receptor (NMDA receptor [9]; 10 »M HU-211, both in absence and presence of 1 »M glutamate and 1 »M glycine, much more strongly in their presence): decreased the dissociation rate; inhibition of the induced [³H]TCP binding compared with the (-)enantiomer HU-210 (NMDA receptor [9]; Figure 3, stereospecificity): far more potent inhibitor; efficacy of glutamate- or glycine-induced [³H]TCP binding (NMDA receptor [9]; HU-211 10 and 5 »M, apparent affinities of glutamate and glycine not altered): reduced the efficacy; rate of association of [³H]TCP binding to the NMDA receptor (NMDA receptor [9]; basal (no added agonist), 10 »M HU-211): only a small decrease; association rate of [³H]TCP binding (NMDA receptor [9]; induced: 1 »M glutamate and 1 »M glycine, 10 »M HU-211): marked decrease; % alive (BALB/C mice [10]): 80%; No.alive total (BALB/C mice [10]): 8/10

Which “mice in which the tremorogenic, convulsive and lethal effects of NMDA were fully prevented” value (C-57 Black mice; C-57 Black mice, dose 2.5 mg/kg, same conditions as Table 2) does the source give for `CCCCCCC(C)(C)c1cc(OC(C)=O)c2c(c1)OC(C)(C)[C@H]1CC=C(CO)C[C@H]21` [HU-247] here?
The value was 6 out of 7.

For `CCCCCCC(C)(C)c1cc(O)c2c(c1)OC(C)(C)[C@H]1CC=C(C)C[C@H]21` [II], which “mice in which the tremorogenic, convulsive and lethal effects were prevented” value (C-57 Black mice; C-57 Black mice) is on record?
Its value is 4 out of 6.

And the “blockade of NMDA-induced tremor, seizure and lethality” value (C-57 Black mice)?
Its value is “potent blockers”.

And the “induction of stereotypy, locomotor hyperactivity and tachycardia” value (Sabra mice [5])?
The value was “induce stereotypy, locomotor hyperactivity and tachycardia”.

For `CCCCCCC(C)(C)c1cc(O)c2c(c1)OC(C)(C)[C@H]1CCC(C)=C[C@H]21` [IIa], which “mice in which the tremorogenic, convulsive and lethal effects were prevented” value (C-57 Black mice; C-57 Black mice) is on record?
Its value is 4 out of 6.

And the “blockade of NMDA-induced tremor, seizure and lethality” value (C-57 Black mice)?
Its value is “potent blockers”.

And the “induction of stereotypy, locomotor hyperactivity and tachycardia” value (Sabra mice [5])?
Its value is “induce stereotypy, locomotor hyperactivity and tachycardia”.
